Reference: US9169254B2, “Spiroimidazolone derivative” (Chugai Seiyaku Kabushiki Kaisha, priority 2009, dated 2015)

What follows are compounds tested against T1, human PTH1 receptor (Homo sapiens, UniProt Q03431) (assay: In vitro cAMP signal activity in HKRK-B7 cells (LLC-PK1 cells overexpressing the human PTH1 receptor)). Conditions: HKRK-B7 cells; compound at 1×10^−3 M; […]; 0.1 µM.
T1 sequence (Q03431 27-593): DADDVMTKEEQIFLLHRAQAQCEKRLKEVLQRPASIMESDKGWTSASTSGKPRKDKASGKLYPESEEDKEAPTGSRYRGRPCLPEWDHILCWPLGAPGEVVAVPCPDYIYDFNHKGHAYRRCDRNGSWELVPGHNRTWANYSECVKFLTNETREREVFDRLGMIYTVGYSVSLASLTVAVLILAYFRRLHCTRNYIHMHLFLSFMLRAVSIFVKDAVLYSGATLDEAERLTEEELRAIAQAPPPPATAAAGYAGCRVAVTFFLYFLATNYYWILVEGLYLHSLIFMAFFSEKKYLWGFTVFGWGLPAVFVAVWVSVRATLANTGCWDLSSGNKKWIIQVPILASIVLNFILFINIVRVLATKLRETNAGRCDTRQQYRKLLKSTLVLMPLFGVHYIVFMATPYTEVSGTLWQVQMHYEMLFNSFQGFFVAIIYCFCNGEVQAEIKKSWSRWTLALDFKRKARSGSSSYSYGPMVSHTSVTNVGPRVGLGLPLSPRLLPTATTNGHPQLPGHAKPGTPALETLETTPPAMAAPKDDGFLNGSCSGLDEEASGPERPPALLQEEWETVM
Assay type: cell-based

Structure (SMILES) | cAMP production activity (%)
COC(=O)N(C)c1ccc(CCS(=O)(=O)N2CCC3(CC2)N=C(c2cccc(OC(F)(F)F)c2)NC3=O)c(C)c1 [Compound 468, Methyl-(3-methyl-4-{2-[4-oxo-2-(3-trifluoromethoxy-phenyl)-1,3,8-triaza-spiro[4.5]dec-1-ene-8-sulfonyl]-ethyl}-phenyl)-carbamic acid methyl ester] | 90
O=C(Cn1ccc2c(/C=C/S(=O)(=O)N3CCC4(CC3)N=C(C3CCCCC3)NC4=O)cccc21)Nc1ccncc1 [Compound 736, 2-{4-[(E)-2-(2-Cyclohexyl-4-oxo-1,3,8-triaza-spiro[4.5]dec-1-ene-8-sulfonyl)-vinyl]-indol-1-yl}-N-pyridin-4-yl-acetamide] | 16

Same assay, conditions: HKRK-B7 cells; compound at 1×10^−3 M; cAMP produced as percentage of that produced by hPTH(1-34) at 100 nM

Structure (SMILES) | cAMP production activity (%)
Cc1cc(CN2C(=O)NC(C)(C)C2=O)cc(C)c1/C=C/S(=O)(=O)N1CCC2(CC1)N=C(C1CCC(C)CC1)NC2=O (stereo not shown) [Compound 519, 3-(3,5-dimethyl-4-{(E)-2-[2-(4-methyl-cyclohexyl)-4-oxo-1,3,8-triaza-spiro[4.5]dec-1-ene-8-sulfonyl]-vinyl}-benzyl)-5,5-dimethyl-imidazolidine-2,4-dione] | 72
Cc1cc(S(=O)(=O)Nc2cccnc2)ccc1/C=C/S(=O)(=O)N1CCC2(CC1)N=C(c1cccc(C(F)(F)F)c1)NC2=O [Compound 219, 3-methyl-4-{(E)-2-[4-oxo-2-(3-trifluoromethyl-phenyl)-1,3,8-triaza-spiro[4.5]dec-1-ene-8-sulfonyl]-vinyl}-N-pyridin-3-yl-benzenesulfonamide] | 60
O=C1NC(C2CCC(C(F)(F)F)CC2)=NC12CCN(S(=O)(=O)c1cccc(Cl)c1)CC2 (stereo not shown) [Compound 17, 8-(3-chloro-benzenesulfonyl)-2-(4-trifluoromethyl-cyclohexyl)-1,3,8-triaza-spiro[4.5]dec-1-en-4-one] | 39
Cc1cc(N(C)C(=O)OC(C)(C)C)cc(C)c1CCS(=O)(=O)N1CCC2(CC1)N=C(C1CCCN1C(=O)OC(C)(C)C)NC2=O (stereo not shown) [Compound 1033, 2-(8-{2-[4-(tert-Butoxycarbonyl-methyl-amino)-2,6-dimethyl-phenyl]-ethanesulfonyl}-4-oxo-1,3,8-triaza-spiro[4.5]dec-1-en-2-yl)-pyrrolidine-1-carboxylic acid tert-butyl ester] | 22
O=C1NC(C2CCC(C(F)(F)F)CC2)=NC12CCN(S(=O)(=O)CCc1cccc3ccccc13)CC2 (stereo not shown) [Compound 37, 8-(2-naphthalen-1-yl-ethanesulfonyl)-2-(4-trifluoromethyl-cyclohexyl)-1,3,8-triaza-spiro[4.5]dec-1-en-4-one] | 54
Cc1nc(C)c(S(=O)(=O)N2CCC3(CC2)N=C(C2CCCCC2)NC3=O)s1 [Compound 58, 2-cyclohexyl-8-(2,4-dimethyl-thiazole-5-sulfonyl)-1,3,8-triaza-spiro[4.5]dec-1-en-4-one] | 39
O=C1NC(C2CCCCC2)=NC12CCN(S(=O)(=O)/C=C/c1ccc(S(=O)(=O)N(CCO)CCO)cc1C(F)(F)F)CC2 [Compound 496, 4-[(E)-2-(2-cyclohexyl-4-oxo-1,3,8-triaza-spiro[4.5]dec-1-ene-8-sulfonyl)-vinyl]-N,N-bis-(2-hydroxy-ethyl)-3-trifluoromethyl-benzenesulfonamide] | 24
COc1cccc(C2=NC3(CCN(S(=O)(=O)CCc4ccc(C(=O)N(C)C)cc4C)CC3)C(=O)N2)c1 [Compound 80, 4-{2-[2-(3-methoxy-phenyl)-4-oxo-1,3,8-triaza-spiro[4.5]dec-1-ene-8-sulfonyl]-ethyl}-3,N,N-trimethyl-benzamide] | 71
O=C1NC(C2CCCCC2)=NC12CCN(S(=O)(=O)CCCCCc1cccc3[nH]ccc13)CC2 [Compound 262, 2-cyclohexyl-8-[5-(1H-indol-4-yl)-pentane-1-sulfonyl]-1,3,8-triaza-spiro[4.5]dec-1-en-4-one] | 26

Other lines, results leading:

cAMP production activity (%) | Structure (SMILES)
68 | Cc1cc(C(=O)N2CCC(C)(O)CC2)cc(C)c1/C=C/S(=O)(=O)N1CCC2(CC1)N=C(c1ccc(F)c(C(F)F)c1)NC2=O [Compound 1217, 2-(3-difluoromethyl-4-fluoro-phenyl)-8-{(E)-2-[4-(4-hydroxy-4-methyl-piperidine-1-carbonyl)-2,6-dimethyl-phenyl]-ethenesulfonyl}-1,3,8-triaza-spiro[4.5]dec-1-en-4-one]
18 | Cc1cc2ccc1CCS(=O)(=O)N1CCC3(CC1)N=C(NC3=O)c1cc(cc(C(F)(F)F)c1)OCCCCCNC(=O)CN(C)C2=O [Compound 1449]
66 | COCCN(C(C)=O)c1ccc(/C=C/S(=O)(=O)N2CCC3(CC2)N=C(C2CCC(CCC(F)(F)F)CC2)NC3=O)c(C)c1 (stereo not shown) [Compound 542, N-(2-methoxy-ethyl)-N-[3-methyl-4-((E)-2-{4-oxo-2-[4-(3,3,3-trifluoro-propyl)-cyclohexyl]-1,3,8-triaza-spiro[4.5]dec-1-ene-8-sulfonyl}-vinyl)-phenyl]-acetamide]
36 | Cc1cc(N2CCC2=O)ccc1CCS(=O)(=O)N1CCC2(CC1)N=C(C1CCCCC1)NC2=O [Compound 861, 2-cyclohexyl-8-{2-[2-methyl-4-(2-oxo-azetidin-1-yl)-phenyl]-ethanesulfonyl}-1,3,8-triaza-spiro[4.5]dec-1-en-4-one]
8.6 | Cc1cc(C(=O)N(C)C)ccc1CCS(=O)(=O)N1CCC2(CC1)N=C(c1ccc(S(C)(=O)=O)cc1)NC2=O [Compound 891, 4-{2-[2-(4-methanesulfonyl-phenyl)-4-oxo-1,3,8-triaza-spiro[4.5]dec-1-ene-8-sulfonyl]-ethyl}-3,N,N-trimethyl-benzamide]
10 | CCS(=O)(=O)CCCCCCC1=NC2(CCN(S(=O)(=O)CCc3c(C)cc(N(C)C(N)=O)cc3C)CC2)C(=O)N1 [Compound 1320, 1-(4-{2-[2-(6-ethanesulfonyl-hexyl)-4-oxo-1,3,8-triaza-spiro[4.5]dec-1-ene-8-sulfonyl]-ethyl}-3,5-dimethyl-phenyl)-1-methyl-urea]
116 | Cc1cc(C(=O)N(C)C)cc(C)c1CCS(=O)(=O)N1CCC2(CC1)N=C(C1CCC(CCC(F)(F)F)CC1)NC2=O (stereo not shown) [Compound 1378, 3,5,N,N-Tetramethyl-4-(2-{4-oxo-2-[4-(3,3,3-trifluoro-propyl)-cyclohexyl]-1,3,8-triaza-spiro[4.5]dec-1-ene-8-sulfonyl}-ethyl)-benzamide]
7.2 | Cc1cc2ccc1CCS(=O)(=O)N1CCC3(CC1)N=C(NC3=O)c1cc(cc(C(F)(F)F)c1)OCCCCCCCCN(C)C2=O [Compound 1412]
48 | Cc1cc(CN2C(=O)NC(C)(C)C2=O)cc(C)c1CCS(=O)(=O)N1CCC2(CC1)N=C(C1CCC(C)CC1)NC2=O (stereo not shown) [Compound 780, 3-(3,5-dimethyl-4-{2-[2-(4-methyl-cyclohexyl)-4-oxo-1,3,8-triaza-spiro[4.5]dec-1-ene-8-sulfonyl]-ethyl}-benzyl)-5,5-dimethyl-imidazolidine-2,4-dione]
64 | Cc1cc(C(=O)N2CCN(C)CC2)cc(C)c1/C=C/S(=O)(=O)N1CCC2(CC1)N=C(C1CCC(CCC(F)(F)F)CC1)NC2=O (stereo not shown) [Compound 991, 8-{(E)-2-[2,6-dimethyl-4-(4-methyl-piperazine-1-carbonyl)-phenyl]-ethenesulfonyl}-2-[4-(3,3,3-trifluoro-propyl)-cyclohexyl]-1,3,8-triaza-spiro[4.5]dec-1-en-4-one]
57 | Cc1cc2ccc1CCS(=O)(=O)N1CCC3(CC1)N=C(NC3=O)c1cc(cc(C(F)(F)F)c1)OCC/C=C/CCCCCN(C)C2=O [Compound 1413]
3.9 | CCCCCCCCCC1=NC2(CCN(S(=O)(=O)/C=C/c3ccc(N4C(=O)CNC4=O)cc3C(F)(F)F)CC2)C(=O)N1 [Compound 537, 3-{4-[(E)-2-(2-nonyl-4-oxo-1,3,8-triaza-spiro[4.5]dec-1-ene-8-sulfonyl)-vinyl]-3-trifluoromethyl-phenyl}-imidazolidine-2,4-dione]
72 | CCCCCCCCCC1=NC2(CCN(S(=O)(=O)/C=C/c3ccc(N4C(=O)CNC4=O)cc3C)CC2)C(=O)N1 [Compound 536, 3-{3-Methyl-4-[(E)-2-(2-nonyl-4-oxo-1,3,8-triaza-spiro[4.5]dec-1-ene-8-sulfonyl)-vinyl]-phenyl}-imidazolidine-2,4-dione]
73 | Cc1cc(N(C[C@H](O)CO)C(N)=O)cc(C)c1CCS(=O)(=O)N1CCC2(CC1)N=C(C1CCC(C)CC1)NC2=O (stereo partly drawn) [Compound 830, 1-((S)-2,3-dihydroxy-propyl)-1-(3,5-dimethyl-4-{2-[2-(4-methyl-cyclohexyl)-4-oxo-1,3,8-triaza-spiro[4.5]dec-1-ene-8-sulfonyl]-ethyl}-phenyl)-urea]
